These are literature values, as cited in US9511020B2, “Controlled release corticosteroid compositions and methods for the treatment of otic disorders” (priority 2008, dated 2016).

For data set [1] the following is noted: for Glucocorticoid potency: relative potency.
For data set [2] the following is noted: relative potency.

Molecules are shown by their SMILES.

Take `C[C@]12CCC(=O)C=C1CC[C@@H]1[C@@H]2[C@@H](O)C[C@]2(C=O)[C@@H](C(=O)CO)CC[C@@H]12` [aldosterone]: the Glucocorticoid potency in data set [1] is 0.07. The Mineralocorticoid potency in data set [2] was 1.0.
`C[C@]12CCC(=O)C=C1CC[C@@H]1[C@@H]2[C@@H](O)C[C@@]2(C)[C@H]1CC[C@]2(O)C(=O)CO` [cortisol]: the Glucocorticoid potency in data set [1] is 1. In addition, the Mineralocorticoid potency in data set [2] is given as 0.054.
As to `C[C@]12C=CC(=O)C=C1CC[C@@H]1[C@@H]2[C@@H](O)C[C@@]2(C)[C@H]1CC[C@]2(O)C(=O)CO` [prednisolone], the Glucocorticoid potency in data set [1] is given as 1.7. Moreover, the “potency relative to endogenous cortisol” value in data set [1] (times the potency of endogenous cortisol) is given as 4-5 times. For the same compound, the Mineralocorticoid potency in data set [2] was 0.013.
Take `C=C1C[C@H]2[C@@H]3CCC4=CC(=O)C=C[C@]4(C)[C@H]3[C@@H](O)C[C@]2(C)[C@@]1(O)C(=O)CO` [prednylidene]: the Glucocorticoid potency in data set [1] is given as 182. Moreover, the Mineralocorticoid potency in data set [2] is reported as 0.0011.
As for `C[C@]12C=CC(=O)C=C1CC[C@H]1[C@@H]3C[C@@H](O)[C@](O)(C(=O)CO)[C@@]3(C)C[C@H](O)[C@@]12F` [triamcinolone], the Glucocorticoid potency in data set [1] is 0.35. The Mineralocorticoid potency in data set [2] is on record as 0.0002.
